Assay results: patent publication US12215389B2, “Compositions for detecting epigenetic modifications” (EXACT SCIENCES CORPORATION, priority 2007, dated 2025)

Tested on: methylated gene promoters in FFPE tissue DNA
Experiment: Real-time MSP on colon tissue samples
Set-up: species or system human
Details: for Specificity (%) / Sensitivity (%): 50 cases (adenoma + carcinoma) vs 39 controls, tissue
Protocol: Real-time MSP was applied on a 7900HT fast real-time PCR system (Applied Biosystems). 2.4 μl of the modified DNA (equivalent to 2.5 μg unconverted DNA) was added to a PCR mix (total volume 12 μl) containing buffer (16.6 mM (NH4)2SO4, 67 mM Tris (pH 8.8), 6.7 mM MgCl2, 10 mM β-mercaptoethanol), dNTPs (5 mM), forward primer (6 ng), reverse primer (18 ng), molecular beacon (0.16 μM), BSA (0.1 μg), and Jumpstart DNA Taq polymerase (0.4 units; Sigma Aldrich). Cycle program used was as follows: 5 minutes 95° C., followed by 45 cycles of 30 seconds 95° C., 30 seconds 57° C. (51° C. for APC), and 30 seconds 72° C., followed by 5 minutes 72° C. A standard curve (2×106—20 copies) was included to determine copy numbers of unknown samples by interpolation of their Ct values to the standard curve.
Marker selection in colon tissue: Based on re-expression, 224 different gene assays representing 145 gene promotors were tested on the Base5 methylation profiling platform (data not shown, see reference 1 for details). The 37 most differentially methylated gene sequences assessing 29 gene promoters were validated on retrospectively collected tumors from 65 colorectal cancer patients (all stages) and 74 distant resection ends (histopathologically normal) using real-time MSP. Several markers reliably detected CRC in those tissue samples (data not shown). The results were confirmed on an independent test set containing 39 tissue controls (non-cancerous), 34 carcinomas and 16 adenomas. Several combinations of the tested markers reliably detected CRC with high specificity and sensitivity.
The ten best performing markers GATA5, GATA4, SFRP1, SFRP2, APC, MGMT, NDRG4, OSMR, JPH3 and ADAM23 were validated with primer sets and beacon probes as specified in Table 24. In addition to the colon test genes, the independent reference gene β-Actin (ACT) was also measured. The ratios between the colon test genes and ACT were calculated, and are the test result of the assay.
Marker candidates identified by re-expression were screened using 37 real-time methylation specific PCR (real-time MSP) assays. These assays were used to assess the methylation status of 29 gene promoters in 293 formalin-fixed paraffin-embedded (FFPE) tissue samples collected from various clinics. Samples included 99 carcinomas of various stages, 16 adenomas, 63 samples from patients with cancer other than CRC (20 breast [stages I-III], 22 bladder [stages I-III], 21 lung [stages I and II]), 39 samples from patients with no evidence of cancer and 76 distant resection ends (histopathologically normal) from CRC patients. These samples were divided into training and independent test sets, and used to select the gene methylation assays best able to discriminate between cancerous and non-cancerous samples. The training set included retrospectively collected tumors from 65 colorectal cancer patients (all stages) and 74 distant resection ends. Using the 10 best performing genes the results were confirmed on an independent test set containing 59 samples from patients with cancer other than CRC, 39 non-cancerous controls and 50 cancer cases (34 carcinomas and 16 adenomas).
The individual performance of the 10 best performing tissue markers OSMR, SFRP1, GATA4, SFRP2, NDRG4, ADAM23, GATA5, MGMT, APC and JPH3 is shown in FIG. 7, when the analytical cut-off was set to give 100% specificity, except for JPH3 where a specificity of 95% was obtained (based on the 39 non-cancerous controls). In addition to the colon test genes, the independent reference gene β-Actin (ACT) was also measured. The ratios between the colon test genes and ACT were calculated, and are the test result of the assay.

[1] = 16 adenoma tissue samples vs 39 controls
[2] = 34 carcinoma tissue samples vs 39 controls
[3] = second cut off ratio, between ( )

| Substance | Sensitivity [1] [%] | Specificity [1] [%] | Sensitivity [2] [%] | Specificity [2] [%] | Specificity (%) | Sensitivity (%) (first cut off ratio) | Sensitivity (%) [3] |
| --- | --- | --- | --- | --- | --- | --- | --- |
| GATA5 (DNA AGTTCGTTTTTAGGTTAGTTTTCGGC; listed as DNA, chemistry not given here) | 63 | 100 | 53 | 100 | 100 | 56 | (66) % |
| SFRP1 (DNA TGTAGTTTTCGGAGTTAGTGTCGCGC; listed as DNA, chemistry not given here) | 88 | 100 | 82 | 100 | 100 | 84 | (92) % |
